Test results reported in ChEMBL document CHEMBL6182861, “Structural modification of heptamethine indocyanine dyes with improved aqueous solubility and stability for photothermal therapy” (Eur J Med Chem, 2025).
Calls of active or inactive are those of the source. No cut-off for these calls is given here.

Key:
4T1 [1] = assay: Photothermal cytotoxicity against mouse 4T1 cells up to 25 uM preincubated for 4 hrs followed by exposure to laser irradiation of 808 nm for 2 mins and subsequent incubation for 20 hrs by MTT assay; format: functional, cell-based
Mus musculus [2] = assay: Photothermal effect in female BALB/c mouse bearing mouse 4T1 cells at 42 degreeC at 1.8 mg/kg, iv pretreated for 4 hrs followed by exposure to laser irradiation of 808 nm for 5 mins; format: functional, organism-based; settings: time 245.0 min
4T1 [3] = assay: Antitumor activity against mouse 4T1 cells implanted in female BALB/c mouse assessed as decrease in tumor volume at 1.8 mg/kg, iv treated for 4 hrs on every 2 days treated for 15 days; format: functional, organism-based; settings: time 15.0 day
4T1 [4] = assay: Antitumor activity against mouse 4T1 cells implanted in female BALB/c mouse assessed as cellular damage at 1.8 mg/kg, iv pretreated for 4 hrs followed by exposure to laser irradiation of 808 nm for 5 mins on every 2 days treated for 15 days by H and E staining based analysis; format: functional, organism-based; settings: time 15.0 day
[5] = Toxicity in female BALB/c mouse bearing mouse 4T1 cells assessed as damage in heart at 1.8 mg/kg, iv pretreated for 4 hrs followed by exposure to laser irradiation of 808 nm for 5 mins on every 2 days treated for 15 days by H and E staining based analysis; format: organism-based; settings: in vivo, 360 h, time 15 day
[6] = Toxicity in female BALB/c mouse bearing mouse 4T1 cells assessed as damage in liver at 1.8 mg/kg, iv pretreated for 4 hrs followed by exposure to laser irradiation of 808 nm for 5 mins on every 2 days treated for 15 days by H and E staining based analysis; format: organism-based; settings: in vivo, 360 h, time 15 day
[7] = Toxicity in female BALB/c mouse bearing mouse 4T1 cells assessed as damage in spleen at 1.8 mg/kg, iv pretreated for 4 hrs followed by exposure to laser irradiation of 808 nm for 5 mins on every 2 days treated for 15 days by H and E staining based analysis; format: organism-based; settings: in vivo, 360 h, time 15 day
[8] = Toxicity in female BALB/c mouse bearing mouse 4T1 cells assessed as damage in kidney at 1.8 mg/kg, iv pretreated for 4 hrs followed by exposure to laser irradiation of 808 nm for 5 mins on every 2 days treated for 15 days by H and E staining based analysis; format: organism-based; settings: in vivo, 360 h, time 15 day
[9] = Toxicity in ICR mouse bearing mouse H22 cells assessed as damage in liver at 1.8 mg/kg, iv pretreated for 4 hrs followed by exposure to laser irradiation of 808 nm for 5 mins on every 2 days treated for 15 days by H and E staining based analysis; format: organism-based; settings: in vivo, 360 h, time 15 day
[10] = Toxicity in ICR mouse bearing mouse H22 cells assessed as damage in spleen at 1.8 mg/kg, iv pretreated for 4 hrs followed by exposure to laser irradiation of 808 nm for 5 mins on every 2 days treated for 15 days by H and E staining based analysis; format: organism-based; settings: in vivo, 360 h, time 15 day
[11] = Aqueous solubility of compound by absorbance based assay; format: physicochemical; settings: buffer
HepG2 = assay: Cytotoxicity against human HepG2 cells assessed as cell viability under dark condition up to 25 uM incubated for 24 hrs by MTT assay relative to control; format: functional
Mitochondrial membrane [12] = assay: Inhibition of mitochondrial membrane potential in mouse 4T1 cells assessed as green fluorescence at 3.12 uM preincubated for 4 hrs followed by exposure to laser irradiation of 808 nm for 2 mins and subsequent incubation for 20 hrs by JC-1 dye based analysis; format: cell membranes; settings: time 1442.0 min
Mitochondrial membrane [13] = assay: Inhibition of mitochondrial membrane potential in human HepG2 cells assessed as green fluorescence at 3.12 uM preincubated for 4 hrs followed by exposure to laser irradiation of 808 nm for 2 mins and subsequent incubation for 20 hrs by JC-1 dye based analysis; format: cell membranes; settings: time 1442.0 min
[14] = Biodistribution in liver of female BALB/c mouse bearing mouse 4T1 cells at 2.5 mg/kg, iv measured up to 12 hrs by fluorescence imaging analysis; format: ADME, organism-based; settings: in vivo
Mus musculus [15] = assay: Photothermal effect in female BALB/c mouse bearing mouse 4T1 cells at approximately 50 degreeC at 2.5 mg/kg, iv pretreated for 4 hrs followed by exposure to laser irradiation of 808 nm for 5 mins; format: functional, organism-based; settings: time 245.0 min
[16] = Drug excretion in female BALB/c mouse bearing mouse 4T1 cells at 2.5 mg/kg, iv measured up to 12 hrs by fluorescence imaging analysis; format: ADME, organism-based; settings: in vivo
[17] = Toxicity in female BALB/c mouse bearing mouse 4T1 cells assessed as body weight at 2.5 mg/kg, iv pretreated for 4 hrs followed by exposure to laser irradiation of 808 nm for 5 mins on every 2 days treated for 15 days; format: organism-based; settings: in vivo, 360 h, time 15 day
4T1 [18] = assay: Antitumor activity against mouse 4T1 cells implanted in female BALB/c mouse assessed as tumor growth inhibition at 2.5 mg/kg, iv pretreated for 4 hrs followed by exposure to laser irradiation of 808 nm for 5 mins on every 2 days treated for 15 days; format: functional, organism-based; settings: time 15.0 day
4T1 [19] = assay: Antitumor activity against mouse 4T1 cells implanted in female BALB/c mouse assessed as decrease in tumor volume at 2.5 mg/kg, iv treated for 4 hrs on every 2 days treated for 15 days; format: functional, organism-based; settings: time 15.0 day
4T1 [20] = assay: Antitumor activity against mouse 4T1 cells implanted in female BALB/c mouse assessed as decrease in tumor size at 2.5 mg/kg, iv pretreated for 4 hrs followed by exposure to laser irradiation of 808 nm for 5 mins on every 2 days treated for 15 days; format: functional, organism-based; settings: time 15.0 day
4T1 [21] = assay: Antitumor activity against mouse 4T1 cells implanted in female BALB/c mouse assessed as cellular damage at 2.5 mg/kg, iv pretreated for 4 hrs followed by exposure to laser irradiation of 808 nm for 5 mins on every 2 days treated for 15 days by H and E staining based analysis; format: functional, organism-based; settings: time 15.0 day
4T1 [22] = assay: Antitumor activity against mouse 4T1 cells implanted in female BALB/c mouse assessed as loosely arranged cells at 2.5 mg/kg, iv pretreated for 4 hrs followed by exposure to laser irradiation of 808 nm for 5 mins on every 2 days treated for 15 days by H and E staining based analysis; format: functional, organism-based; settings: time 15.0 day
4T1 [23] = assay: Antitumor activity against mouse 4T1 cells implanted in female BALB/c mouse assessed as necrotic tissue at 2.5 mg/kg, iv pretreated for 4 hrs followed by exposure to laser irradiation of 808 nm for 5 mins on every 2 days treated for 15 days by H and E staining based analysis; format: functional, organism-based; settings: time 15.0 day
[24] = Toxicity in female BALB/c mouse bearing mouse 4T1 cells assessed as damage in lung at 2.5 mg/kg, iv pretreated for 4 hrs followed by exposure to laser irradiation of 808 nm for 5 mins on every 2 days treated for 15 days by H and E staining based analysis; format: organism-based; settings: in vivo, 360 h, time 15 day
[25] = Toxicity in ICR mouse bearing mouse H22 cells assessed as damage in spleen at 2.5 mg/kg, iv pretreated for 4 hrs followed by exposure to laser irradiation of 808 nm for 5 mins on every 2 days treated for 15 days by H and E staining based analysis; format: organism-based; settings: in vivo, 360 h, time 15 day
[26] = Toxicity in ICR mouse bearing mouse H22 cells assessed as damage in lung at 2.5 mg/kg, iv pretreated for 4 hrs followed by exposure to laser irradiation of 808 nm for 5 mins on every 2 days treated for 15 days by H and E staining based analysis; format: organism-based; settings: in vivo, 360 h, time 15 day
[27] = Toxicity in ICR mouse bearing mouse H22 cells assessed as damage in kidney at 2.5 mg/kg, iv pretreated for 4 hrs followed by exposure to laser irradiation of 808 nm for 5 mins on every 2 days treated for 15 days by H and E staining based analysis; format: organism-based; settings: in vivo, 360 h, time 15 day

COC(=O)C(=C\C=C\C1=[N+](C)c2ccccc2C1(C)C)/C=C/C=C1/N(C)c2ccccc2C1(C)C.[I-]
Activity (4T1 [1]): Not active; Limited Photo-Thermal Toxicity Was Observed
Activity (Mus musculus [2]): Active
Activity (4T1 [3]): inactive
Activity (4T1 [4]): Not active; Minor Cell Damage Was Observed
Activity [5]: Non-toxic
Activity [6]: Non-toxic
Activity [7]: Non-toxic
Activity [8]: Non-toxic
Activity [9]: Non-toxic
Activity [10]: Non-toxic

COCCOCCOCCN1/C(=C/C=C/C(=C/C=C/C2=[N+](CCOCCOCCOC)c3ccccc3C2(C)C)C(=O)OC)C(C)(C)c2ccccc21.[I-]
solubility [11]: soluble
Activity (HepG2): 55%
inhibition (Mitochondrial membrane [12]): Active
inhibition (Mitochondrial membrane [13]): Active
Drug uptake [14]: Active
Activity (Mus musculus [15]): Active; Compound Exhibited Superior Effect Among Tested Compounds
Drug excretion [16]: Active
Activity [17]: 18 g
inhibition (4T1 [18]): Active
Activity (4T1 [19]): inactive
Activity (4T1 [20]): Active
Activity (4T1 [21]): Active
Activity (4T1 [22]): Active
Activity (4T1 [23]): Active
Activity [24]: Non-toxic
Activity [25]: Non-toxic
Activity [26]: Non-toxic
Activity [27]: Non-toxic
